Read-outs that look alike come from different tables or passages of the source. Marks after values point to notes of the source that are not given here.
Assays:
in vitro = settings: human; for Papp A→B: Caco-2, pH 7.4
Experimental: (§1) A method of using the medium also is part of the present invention. The following description is representative of how this would be done. Caco-2 cells (available from ATCC, Manassas, Va.) are resuspended in the HTB-10 medium and seeded on 3 μm polycarbonate 6-well Transwell® cell culture inserts (diameter 24.5 mm, Corning Costar) at a density of about 0.2×10^6 cells/cm^2. The seeding of the cells was performed on dry filters by placing 1.5 mL of the cell suspension on the apical side first, followed by addition of 2.5 mL of HTB-10 medium to the baso-lateral side.
(§2) To induce cell polarity, the volume of the medium on the apical side was decreased from 1.5 ml to 0.5 mL 48 hours post seeding, and the cells were fed primarily from the baso-lateral side. After the switch, the medium was changed every 24 hr for a total incubation period of 4 days.
(§3) The differentiation status and the monolayer integrity were monitored by measurements of transepithelial electrical resistance (TEER) and by determination of permeability of mannitol. […] The accelerated Caco-2 system was also evaluated through a validation process that was based on FDA guidelines for the Biopharmaceuticals Classification System (BCS). In that process, Caco-2 cell permeability coefficients were determined for 26 structurally diverse compounds that were then rank-ordered according to the fraction absorbed in humans. The transport studies were conducted as follows. The donor solution of the drug was placed on the apical side of a sample filter (1.5 mL) and the buffer solution (HBSS, pH 7.4) was placed on the baso-lateral side (2.5 mL). The plates were incubated at 37° C. on a shaker for 1-3 hr. Samples were collected at the designated time points and analyzed by either HPLC (uv)or radiometry (for radioactive compounds).

[1] = fraction absorbed in humans, reported in the literature; cited from earlier work
Caco-2 monolayer [2] = settings: cited from earlier work
Caco-2 monolayer [3] = assay: in vitro
Experimental: as §1, §2, §3

[4] = BCS validation set, compounds rank-ordered according to fraction absorbed in humans

Compound	Papp A→B (in vitro) [×10⁻⁶ cm/s]	% fa in humans [1]	Permeability class (Caco-2 monolayer [2]; [4])	further results
Nc1nc2c(ncn2COCCO)c(=O)[nH]1 [Acyclovir]	3.8	–	–	–
CC1(C)S[C@@H]2[C@H](NC(=O)[C@H](N)c3ccc(O)cc3)C(=O)N2[C@H]1C(=O)O [Amoxicillin]	0.02	94** %	Low	–
Cc1cc(=O)n(-c2ccccc2)n1C [Antipyrine]	–	97-100%	–	–
CC(C)NCC(O)COc1ccc(CC(N)=O)cc1 (stereo not drawn) [Atenolol]	–	50-54%	–	–
NC(=O)N1c2ccccc2C=Cc2ccccc21 [Carbamazepine]	84.6	100%	High	–
NC(N)=Nc1nc(CSCCC(N)=NS(N)(=O)=O)cs1 [Famotidine]	1.36	38%	Low	–
CC(C)n1c(/C=C/C(O)CC(O)CC(=O)O)c(-c2ccc(F)cc2)c2ccccc21 (stereo not drawn) [Fluvastatin]	10.8	–	High	–
NS(=O)(=O)c1cc(C(=O)O)c(NCc2ccco2)cc1Cl [Furosemide]	–	61%	–	–
NS(=O)(=O)c1cc2c(cc1Cl)NCNS2(=O)=O [Hydrochlorthiazide]	6.9	65-72%	–	–
CC(C(=O)O)c1cccc(C(=O)c2ccccc2)c1 (stereo not drawn) [Ketoprofen]	48.6	–	High	–
C[C@](N)(Cc1ccc(O)c(O)c1)C(=O)O [L-alpha-methyldopa]	–	44** %	–	Permeability class (Caco-2 monolayer [2]; Caco-2): Low; [PM × 10^−6] cm/sec (Caco-2 monolayer [3]; human, Caco-2, pH 7.4): 5.7 +/− 0.5 × 10^−6 cm/sec
OC[C@@H](O)[C@@H](O)[C@H](O)[C@H](O)CO [Mannitol]	3	16-26%	Low	Papp (in vitro; Caco-2): 0.7 to 6.3 ×10⁻⁶ cm/s
CN(Cc1cnc2nc(N)nc(N)c2n1)c1ccc(C(=O)N[C@@H](CCC(=O)O)C(=O)O)cc1 [Methotraxate]	–	20-100** %	Low	[PM × 10^−6] cm/sec (Caco-2 monolayer [3]; 4-day Caco-2 in HTB-10, donor apical, HBSS pH 7.4, 37° C., 1-3 hr, donor concentration per Table 1): 4.2 +/− 0.7 × 10^−6 cm/sec
COCCc1ccc(OCC(O)CNC(C)C)cc1 (stereo not drawn) [Metoprolol]	43.6	–	High	–
COc1ccc2cc([C@H](C)C(=O)O)ccc2c1 [Naproxen]	–	94-100%	–	–
CC(C)NCC(O)COc1cccc2ccccc12 (stereo not drawn) [Propranolol]	19.3	–	High	–
CNC(=C[N+](=O)[O-])NCCSCc1ccc(CN(C)C)o1 [Ranitidine]	2.2	50-61%	Medium	–
CC(C)(C)NCC(O)c1cc(O)cc(O)c1 (stereo not drawn) [Terbutalin]	5.54	50-73%	Medium	–
C[C@]12CC[C@H]3[C@@H](CCC4=CC(=O)CC[C@@]43C)[C@@H]1CC[C@@H]2O [Testosterone]	–	100%	–	–
Cn1c(=O)c2[nH]cnc2n(C)c1=O [Theophylline]	–	96%	–	–
CC(C)(C)NC[C@H](O)COc1nsnc1N1CCOCC1 [Timolol]	25.4	72-75%	Medium	–
PEG-400	–	–	–	[PM × 10^−6] cm/sec (Caco-2 monolayer [3]; Caco-2, pH 7.4): 1.1 +/− 0.1 × 10^−6 cm/sec
PEG-900	–	–	–	[PM × 10^−6] cm/sec (Caco-2 monolayer [3]; Caco-2, pH 7.4): 0.7 +/− 0.1 × 10^−6 cm/sec
PEG-4000	–	–	–	[PM × 10^−6] cm/sec (Caco-2 monolayer [3]; Caco-2, pH 7.4): 0.6 +/− 0.1 × 10^−6 cm/sec
